Like-named read-outs stand apart in the source and are kept apart here.
Tests used:
[1] = Solubility of insulin, FDKP and insulin plus FDKP between pH 6.0 and pH 7.4 (Example 9); assay type: physicochemical
Experimental: A standard solution of insulin (using recombinant human insulin) was made in 0.05N aqueous HCl. An aliquot (1 mg) of the solution was transferred into 4 different Eppendorf tubes and 9 mg of solid Na2-FDKP was added into each tube. A milky suspension formed immediately. The pH was adjusted to the values between pH 6.0 and pH 7.4 using 0.1N aqueous NaOH. Samples of insulin alone were compared to FDKP alone and to the solution of insulin and FDKP. The insulin alone samples were all insoluble. […] All samples containing 9 mg/ml FDKP and 1 mg/ml insulin were soluble at all pH values.

[2] = FDKP micelle formation; assay type: physicochemical; settings: FIG. 3
Experimental: FIG. 3 is a graph depicting the concentration of FDKP for forming micelles in phosphate buffer at pH 7.4 above 0.03 mg/ml.
Without being restricted to any one mechanism for creating the ultra-fast insulin formulations, a diketopiperazine, for example FDKP, has effects as an absorption enhancer and permeation enhancer, a metal chelator, a surfactant, a bolaamphiphile, and an aggregation inhibitor, and promotes enhanced absorption through a combination of these effects, including enhancing the amount of monomer insulin in solution upon injection. For example, the fumaric acid charges on the FDKP may serve to charge-mask insulin positive charges, reducing the overall charge on the insulin, and making it more likely to be absorbed, especially when formulations have a pH of about 6.0 to about 7.2, as described herein.

[3] = test system: diabetic minipigs; experiment: Glucose response after subcutaneous injection in diabetic minipigs (Example 8); assay type: in vivo, Yucatan minipigs
Experimental: Recombinant human insulin were prepared in ultra-fast acting subcutaneous injectable formulations in aqueous solutions containing FDKP at pH 6.5 and 7.4, as summarized in Table 6. All formulation preparation was conducted in a laminar flow hood and the final solutions were filtered through 0.2 micron filters. Both formulations were injected into the subcutaneous tissue of diabetic minipigs (Yucatan minipigs rendered diabetic by treatment with alloxan).
The glucose response from the pH 6.5 formulation compared to a subcutaneous injection of standard lispro insulin is shown in FIG. 1. […] Time to 50% glucose reduction from the formulation is 30 minutes, while that from standard lispro is 50 minutes.
The glucose response from the […] formulation compared to a subcutaneous injection of the ultra-fast acting pH 6.5 formulation, both containing FDKP, are shown in FIG. 2. […] The strong pH dependency of the absorption rate was not anticipated. While not wanting to be held to a specific mechanism for the rapid absorption, the lower pH solution appears to cause there to be less charge on the FDKP, which would make it more hydrophobic, and therefore more likely to bind tightly to the insulin molecule, thereby reducing the overall charge on insulin, causing there to be more monomers in solution, and enhancing the absorption by several mechanisms.

| Compound | solubility [1] | solubility ([1]; pH 6) | solubility ([1]; pH 6.5) | solubility ([1]; pH 7) | solubility ([1]; pH 7.4) | solubility ([1]; below pH 7.0) | solubility ([1]; pH 6.0) | solubility ([1]; pH 7.0, listed as FDKP (9 mg/mL)) | solubility ([1]; pH 7.0, listed as FDKP alone) | solubility ([1]; pH 7.4, listed as FDKP (9 mg/mL)) | solubility ([1]; pH 7.4, listed as FDKP alone) | concentration for forming micelles [2] [µM] | Time to 50% glucose reduction [3] [min] |
| --- | --- | --- | --- | --- | --- | --- | --- | --- | --- | --- | --- | --- | --- |
| Insulin (1 mg/mL): Recombinant human insulin, 1 mg/mL, without FDKP [reference compound] | insoluble | insoluble | Insoluble | Insoluble | Insoluble | – | – | – | – | – | – | – | – |
| O=C(O)/C=C/C(=O)NCCCCC1NC(=O)C(CCCCNC(=O)/C=C/C(=O)O)NC1=O (centres unmarked) [FDKP, 2,5-diketo-3,6-di(4-fumarylaminobutyl)piperazine] | – | – | Insoluble | – | – | insoluble | Insoluble | Partial | partially soluble | Soluble | soluble | ≥ 62 | – |
| insulin lispro [standard lispro] | – | – | – | – | – | – | – | – | – | – | – | – | 50 |

— patent US20220354782A1, “SUBCUTANEOUSLY INJECTABLE INSULIN AND GLUCAGON FORMULATIONS AND METHODS OF ADMINISTRATION” (CASS PHARMACEUTICALS, INC., priority 2019, published 2022)
